Values joined by “and” are separate entries in the source; they are usually repeats but may differ in a detail not shown here. Equal entries are not always repeated. Inconclusive results and toxic doses are left out. The calls were made as follows: active = survival T/C of 150% or more; inactive = T/C below 125% in these data. Peptide text beside a SMILES is read from it.
Tested on: P388 leukemia ip, CD2F1 mice, survival T/C
Assay: NCI In Vivo Anticancer Drug Screen. Data for tumor model P388 Leukemia (intraperitoneal) in CD2F1 (CDF1) mice
Conditions: endpoint: median survival time, higher = longer survival
In short: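 Mice carrying the transplanted tumor received test compound or vehicle. Survival was recorded in each group, and the value is the treated-group measurement divided by that of the vehicle-treated control group.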

[1] = dose: 50.0 mg/kg/injection, schedule: Q01DX005 (ip), vehicle: saline
[2] = dose: 100.0 mg/kg/injection, schedule: Q01DX005 (ip), vehicle: saline
[3] = dose: 200.0 mg/kg/injection, schedule: Q01DX005 (ip), vehicle: saline

Measured: T/C

O=P(CCP(=O)(c1ccccc1)c1ccccc1)(c1ccccc1)c1ccccc1.[Cl][Sn]([Cl])([c]1ccccc1)[c]1ccccc1
inactive: dose: 0.79 mg/kg/injection, schedule: Q01DX005 (ip), vehicle: Klucel (hydroxypropylcellulose) (HPC) 116 % of control and 117 % of control | dose: 1.56 mg/kg/injection, schedule: Q01DX005 (ip), vehicle: Klucel (hydroxypropylcellulose) (HPC) 114 % of control and 119 % of control | dose: 3.12 mg/kg/injection, schedule: Q01DX005 (ip), vehicle: Klucel (hydroxypropylcellulose) (HPC) 111 % of control and 119 % of control | dose: 6.25 mg/kg/injection, schedule: Q01DX005 (ip), vehicle: Klucel (hydroxypropylcellulose) (HPC) 113 % of control

OCCN1CCC(C2CCN(CCO)CC2)CC1
inactive: [1] 96 % of control | [2] 97 % of control | [3] 98 % of control

CC(=O)OCC#CCOC(C)=O
inactive: dose: 12.5 mg/kg/injection, schedule: Q01DX009 (ip), vehicle: saline sonified 100 % of control | dose: 25.0 mg/kg/injection, schedule: Q01DX009 (ip), vehicle: saline sonified 100 % of control | dose: 50.0 mg/kg/injection, schedule: Q01DX009 (ip), vehicle: saline sonified 100 % of control

NC(CSC(c1ccccc1)(c1ccccc1)c1ccc(CBr)cc1)C(=O)O (centres undefined)
inactive: dose: 12.5 mg/kg/injection, schedule: Q01DX009 (ip), vehicle: Klucel (hydroxypropylcellulose) (HPC) 86 % of control | dose: 12.5 mg/kg/injection, schedule: Q01DX009 (ip), vehicle: other 120 % of control | dose: 25.0 mg/kg/injection, schedule: Q01DX009 (ip), vehicle: Klucel (hydroxypropylcellulose) (HPC) 90 % of control | dose: 50.0 mg/kg/injection, schedule: Q01DX009 (ip), vehicle: Klucel (hydroxypropylcellulose) (HPC) 95 % of control | dose: 100.0 mg/kg/injection, schedule: Q01DX009 (ip), vehicle: Klucel (hydroxypropylcellulose) (HPC) 88 % of control | dose: 200.0 mg/kg/injection, schedule: Q01DX009 (ip), vehicle: Klucel (hydroxypropylcellulose) (HPC) 90 % of control | dose: 400.0 mg/kg/injection, schedule: Q01DX009 (ip), vehicle: Klucel (hydroxypropylcellulose) (HPC) 94 % of control
active: dose: 100.0 mg/kg/injection, schedule: Q01DX009 (ip), vehicle: other 151 % of control and 159 % of control | dose: 200.0 mg/kg/injection, schedule: Q01DX009 (ip), vehicle: other 162 % of control and 178 % of control | dose: 400.0 mg/kg/injection, schedule: Q01DX009 (ip), vehicle: other 182 % of control

O=S1(=O)c2ccccc2C(N2CCCCC2)C1CCCCC1C(N2CCCCC2)c2ccccc2S1(=O)=O (centres undefined)
inactive: dose: 100.0 mg/kg/injection, schedule: Q04DX002 (ip), vehicle: saline with Tween-80 100 % of control | dose: 200.0 mg/kg/injection, schedule: Q04DX002 (ip), vehicle: saline with Tween-80 98 % of control | dose: 400.0 mg/kg/injection, schedule: Q04DX002 (ip), vehicle: saline with Tween-80 99 % of control

Cc1cc2c(cc1C)C(O)(C#Cc1ccccc1)c1c(C)ccc(C)c1C2=O (centres undefined)
inactive: dose: 100.0 mg/kg/injection, schedule: Q04DX003 (ip), vehicle: saline with Tween-80 100 % of control | dose: 200.0 mg/kg/injection, schedule: Q04DX003 (ip), vehicle: saline with Tween-80 100 % of control | dose: 400.0 mg/kg/injection, schedule: Q04DX003 (ip), vehicle: saline with Tween-80 97 % of control

C=C(Br)COc1ccc2c(C)cc(=O)oc2c1
inactive: dose: 60.0 mg/kg/injection, schedule: Q01DX005 (ip), vehicle: saline with Tween-80 115 % of control | dose: 120.0 mg/kg/injection, schedule: Q01DX005 (ip), vehicle: saline with Tween-80 100 % of control | dose: 240.0 mg/kg/injection, schedule: Q01DX005 (ip), vehicle: saline with Tween-80 96 % of control

COc1ccc(C(C)=C2C=C(C(C)(C)C)C(=O)C(C(C)(C)C)=C2)cc1
inactive: dose: 50.0 mg/kg/injection, schedule: Q01DX005 (ip), vehicle: saline + Tween-80 + alcohol 111 % of control | dose: 100.0 mg/kg/injection, schedule: Q01DX005 (ip), vehicle: saline + Tween-80 + alcohol 109 % of control | dose: 200.0 mg/kg/injection, schedule: Q01DX005 (ip), vehicle: saline + Tween-80 + alcohol 113 % of control

C/C(=N\NC(=S)N1CC(C)OC(C)C1)c1ncccn1 (centres undefined)
inactive: dose: 7.5 mg/kg/injection, schedule: Q01DX005 (ip), vehicle: saline with Tween-80 104 % of control | dose: 15.0 mg/kg/injection, schedule: Q01DX005 (ip), vehicle: saline with Tween-80 98 % of control

Cc1cc(N/N=C/c2ccc(N(CCCl)CCCl)cc2)c2cc3c(cc2n1)OCO3
inactive: dose: 25.0 mg/kg/injection, schedule: Q04DX003 (ip), vehicle: saline with Tween-80 111 % of control

CC(C(=O)O)c1ccc(C(=O)c2cccs2)cc1 (centres undefined)
inactive: dose: 50.0 mg/kg/injection, schedule: Q01DX009 (ip), vehicle: saline with Tween-80 97 % of control | dose: 100.0 mg/kg/injection, schedule: Q01DX009 (ip), vehicle: saline with Tween-80 97 % of control | dose: 200.0 mg/kg/injection, schedule: Q01DX009 (ip), vehicle: saline with Tween-80 97 % of control

CC(NC(=O)C(C)NC(=O)C(N)CCC(=O)O)C(=O)O (stereo not drawn) (H-Glu-Ala-Ala-OH; configuration not given here)
inactive: [1] 104 % of control | [2] 104 % of control | [3] 103 % of control

COc1ccc2c(C)cc(=O)sc2c1
inactive: dose: 50.0 mg/kg/injection, schedule: Q01DX009 (ip), vehicle: saline + Tween-80 + alcohol 101 % of control | dose: 100.0 mg/kg/injection, schedule: Q01DX009 (ip), vehicle: saline + Tween-80 + alcohol 104 % of control | dose: 200.0 mg/kg/injection, schedule: Q01DX009 (ip), vehicle: saline + Tween-80 + alcohol 100 % of control

Reference: PubChem BioAssay AID330 (DTP/NCI, 2004)
